This note sets out measurements from patent US10865196B2, “Compounds for treatment of cancer” (University of Tennessee Research Foundation, priority 2008, dated 2020).

The structures appear in SMILES notation. Several values for one entry are separate records, joined by “and”; a condition that tells them apart may be missing. Equal entries are not always repeated. Where two headings read alike, the source gives them in different places.

Data set [1] relates to melanoma (A375, B16-F1) and prostate cancer cells (DU145, PC-3, LNCaP, PPC-1). The experiment in a line: SRB assay, range over melanoma and prostate cancer cell lines. As to conditions: range over the examined cell lines; read-out: IC50 over melanoma and prostate cancer cell lines. It is filed as cell-based. Here is the method: (§1) For melanoma assays, one human melanoma cell line (A375) and one mouse melanoma cell line (B16-F1) were used. […] Fibroblast cells were used as a control to determine the selectivity of these compounds against melanoma. Human dermal fibroblast cells were purchased from Cascade Biologics, Inc., Portland, Oreg., USA. […] Cells were exposed to a wide range of concentrations for 48 h in round-bottomed 96-well plates. […] After cells were air-dried overnight and stained with SRB solution, total proteins were measured at 560 nm with a plate reader.
Background: The SRB assay estimates cell density from bound dye.

Data set [2] has as its system LNCaP prostate cancer cells. In words: cell cycle analysis, propidium iodide. The class given is cell-based, human. The note with it: 24 h.
Data set [3] relates to Human A375 malignant melanoma cells. The experiment in a line: A375 melanoma colony formation. The class given is cell-based. As to conditions: 10 days. Here is the method: Human A375 malignant melanoma cells were plated at a colony-forming density (200 cells per well on six well plates). Cells were grown in DMEM medium (GIBCO, Invitrogen Corp., Carlsbad, Calif.) supplemented with charcoal-stripped fetal bovine serum (HyClone, Logan, Utah) and an antibiotic-antimycotic solution (Sigma, St. Louis, Mo.) at 37° C. in an atmosphere of 95% air and 5% CO2. […] Cells were grown for 10 days and colonies were fixed with 4% paraformaldehyde in PBS at 4° C. The fixed colonies were washed with distilled water, stained with 0.1% crystalline blue for 30 min and rinsed with distilled water to remove excess of the dye. Plates were photographed and colony formations were examined by eye and under the microscope.

Data set [4] has as its system NCI-60 human tumor cell lines. In words: NCI-60 screening assay.
A short description of data set [5]: pharmacokinetic study in ICR mice. As to conditions: mouse, IV 10 mg/kg.
Data set [6] can be described thus: pharmacokinetic study in Sprague-Dawley rats. As to conditions: rat.
For the next data set, the system named is B16-F1. In words: SRB antiproliferation assay, B16-F1 melanoma. It is filed as cell-based, mouse. As to conditions: Mus musculus, B16-F1, SRB; read-out: IC50 B16-F1 (converted). The text has this:
(§2) For melanoma assays, one human melanoma cell line (A375) and one mouse melanoma cell line (B16-F1) were used. […] Fibroblast cells were used as a control to determine the selectivity of these compounds against melanoma. Human dermal fibroblast cells were purchased from Cascade Biologics, Inc., Portland, Oreg., USA.

A further data set deals with A375. In words: SRB antiproliferation assay, A375 melanoma. The note with it: Homo sapiens, A-375, SRB; read-out: IC50 A375 (converted). The class given is cell-based, human.
From the text: as §2

For the next data set, the system named is melanoma cells. The experiment in a line: SRB assay, melanoma cells. It is filed as cell-based. The note with it: range over melanoma cell lines; read-out: IC50 values against melanoma cells. How it is done:
as §1

Data set [7] deals with prostate cancer cells (LNCaP, PC-3, DU-145, PPC-1). In words: SRB assay, prostate cancer cells. The class given is cell-based, human. As to conditions: range over prostate cancer cell lines, read-out: IC50 values against prostate cancer cells.
The subject of another data set is PC-3. The experiment in a line: SRB antiproliferation assay, PC-3 prostate cancer.
The next data set deals with LNCaP. The experiment in a line: SRB antiproliferation assay, LNCaP prostate cancer. The note with it: read-out: IC50 LNCaP; SRB.
Another data set concerns PPC-1. In words: SRB antiproliferation assay, PPC-1 prostate cancer. As to conditions: read-out: IC50 PPC-1; SRB.
A further data set deals with DU 145. The experiment in a line: SRB antiproliferation assay, DU 145 prostate cancer. The note with it: read-out: IC50 DU 145; SRB.
A further data set has as its system B16-F1 mouse melanoma. In words: B16-F1 melanoma tumor in C57BL/6 mice. The note with it: B16-F1 in C57BL/6 mice, 6 mg/kg daily i.p. It is filed as in vivo. Here is the method: B16 tumors will grow in a fully immunocompetent host, in which case the tumor progression may more accurately replicate melanoma growth. Logarithmic growth phase B16-F1 (3.8×10^5) cells were injected s.c. into the right dorsal flank of C57BL/6 mice. When tumors were palpable, mice were randomized into a control and a treatment group (n=9). […] Body weights were also recorded. Tumor volume was expressed as cubic millimeters. […] There was no significant body weight loss (<5%), and all mice had normal activities during the experiments.

The test system of a further data set is WM164. In words: SRB antiproliferation assay, WM-164 melanoma. The class given is cell-based. The note with it: Homo sapiens.
Data set [8] in a line: metabolic stability in human liver microsomes. The note with it: Phase I conditions, FIG. 18.
In a further data set the test system is A549. The experiment in a line: SRB antiproliferation assay, A549 lung cancer. The note with it: Homo sapiens, A549, 96 h, read-out: IC50 in the SRB, A549.
The next data set has as its system C26. In words: SRB antiproliferation assay, C26 colon cancer. The note with it: C26, 96 h, read-out: IC50 in the SRB, C26.
The test system of a further data set is MCF7. In words: SRB antiproliferation assay, MCF7 breast cancer. The note with it: Homo sapiens, MCF7, 96 h, read-out: IC50 in the SRB, MCF7.
The next data set has as its system MES-SA. The experiment in a line: SRB antiproliferation assay, MES-SA uterine cancer. As to conditions: Homo sapiens, 96 h, read-out: IC50 in the SRB, MES-SA.
The next data set concerns OVCAR-8. In words: SRB antiproliferation assay, OVCAR-8 ovarian cancer. The note with it: Homo sapiens, OVCAR-8, 96 h, read-out: IC50 in the SRB, OVCAR8.
A further data set relates to NCI/ADR-RES. In words: SRB antiproliferation assay, P-gp over-expressing NCI/ADR-RES. As to conditions: Homo sapiens, NCI/ADR-RES, 96 h, read-out: IC50 in the SRB, NCI/ADR-RES.
Another data set relates to MES-SA/DX5. The experiment in a line: SRB antiproliferation assay, doxorubicin-resistant MES-SA/DX5. As to conditions: Homo sapiens, MES-SA/Dx5, 96 h, read-out: IC50 in the SRB, MES-SA/DX5, uterine MDR, 96 h, N = 3.
For a further data set, the system named is PC3. The experiment in a line: cell growth inhibition SRB, PC3 (vascular study). The class given is cell-based. As to conditions: Homo sapiens, PC-3, N = 3, Table 14. From the text: (§3) Cell growth inhibition studies. […] Cells were stained with sulphorhodamine B (SRB) solution.
The subject of a further data set is T47D. In words: cell growth inhibition SRB, T47D. The note with it: Homo sapiens, N = 3, Table 14. The class given is cell-based.
From the text: as §3

The next data set has as its system HUVEC. The experiment in a line: endothelial cell growth inhibition SRB, HUVEC. It is filed as cell-based, human. The note with it: Homo sapiens, HUVEC; SRB, N = 3, growth factor-supplemented endothelial cells.
Data set [9] concerns confluent HUVEC monolayers. In words: endothelial monolayer permeability assay. It is filed as cell-based, human. The note with it: leakage of FITC-dextran (MW 40,000) after 1, 2 and 4 h. The text has this: Endothelial monolayer permeability assay.
The subject of data set [10] is colchicine-binding site on tubulin. The experiment in a line: competitive mass binding assay, colchicine-tubulin binding. As to conditions: tubulin 1 mg/mL.
Where [11] appears, read: 5 mg/kg injected, 20 min-48 h, 5 mg/kg.

As to `COc1cc(C(=O)c2csc(-c3ccccc3)n2)cc(OC)c1OC` [8f, (2-Phenyl-thiazol-4-yl)-(3,4,5-trimethoxy-phenyl)-methanone], the IC50 in data set [1] lay within 21 to 71 nM. In addition, the “effect on cell cycle distribution” value in data set [2] (10 nM) is “no effect”. Also, the “proportion of cells in G2/M phase” value stood at 57% in data set [2] (50 nM, about 10% in untreated cells); 63% in [2] (200 nM); 49% in data set [2] (500 nM). Moreover, the melanoma colony formation result is listed as “significantly inhibit” in data set [3] (A375, 0.03 μM); “completely inhibited” in [3] (A375, 0.3 and 3 μM). For the same compound, in data set [4] (Homo sapiens, read-out: NCI-60 GI50 values), the GI50 – broadly, the concentration at which growth is held to half of that of the control – was below 10 nM. Moreover, in data set [4] (against most cell lines), the “NCI-60 TGI values” is recorded as “micromolar range”. Further, in data set [5], the MousePK_IV10mgk_CI worked out at 130 mL/min/kg. This compound had a MousePK_IV10mgk_V in data set [5] of 4.9 Lkg. Besides, the “RatPK IV CI at 2.5 mpk” value in data set [6] (IV 2.5 mpk) is 7.7 (2.5 mpk) mL/min/kg. For the same compound, the “RatPK IV V at 2.5 mpk” value in [6] (IV 2.5 mpk) was 4.9 (2.5 mpk) L/kg.

Consider `COc1cc(C(=O)c2csc(-c3ccccc3F)n2)cc(OC)c1OC` [8l, [2-(2-Fluorophenyl)-thiazol-4-yl]-(3,4,5-trimethoxyphenyl)-methanone], for which the melting point (in general, the temperature, or range, at which the solid turns liquid) is 90 to 102 °C. Also, the IC50 in the data set with B16-F1 is 27 nM. Moreover, the IC50 with A375 is 30 nM. For the same compound, the IC50 in the data set on melanoma cells was in the range of 27 to 30 nM. The IC50 in [7] (Homo sapiens) lay in the range of 52 to 114 nM. The IC50 in the data set with PC-3 (read-out: IC50 PC-3, SRB) was 82 nM. The IC50 with LNCaP was 53 nM. Besides, the IC50 with PPC-1 was 52 nM. For the same compound, the IC50 in the data set with DU 145 is 114 nM.

As for `COc1cc(C(=O)c2csc(-c3cccc(F)c3)n2)cc(OC)c1OC` [8m, [2-(3-Fluorophenyl)-thiazol-4-yl](3,4,5-trimethoxyphenyl)-methanone], the IC50 with B16-F1 is 287 nM; in the data set with A375 it was 304 nM; with melanoma cells, 287 to 304 nM; in data set [7] (Homo sapiens), 23 to 46 nM; in the data set with PC-3 (read-out: IC50 PC-3, SRB), 24 nM; with LNCaP, 11 nM. In addition, the IC50 with PPC-1 was 21 nM; in the data set with DU 145, 35 nM.

For `COc1cc(C(=O)c2csc(-c3ccc(F)cc3)n2)cc(OC)c1OC` [8n, [2-(4-Fluorophenyl)-thiazol-4-yl]-(3,4,5-trimethoxyphenyl)-methanone], the IC50 was in the range of 6 to 43 nM in [1], 33 to 43 nM in the data set with melanoma cells, 6 to 13 nM in data set [7] (Homo sapiens) and 6 to 12 nM in data set [7]. Besides, the melanoma colony formation entry in data set [3] (A375, 0.03 μM) is listed as “significantly inhibit”; in data set [3] (A375, 0.3 and 3 μM), “completely inhibited”. For the same compound, the body weight loss in the data set on B16-F1 mouse melanoma is below 5%. Moreover, the tumor growth inhibition result with B16-F1 mouse melanoma is on record as “significant tumor growth inhibition”.

Take `COc1cc(C(=O)c2c[nH]c(-c3cn(S(=O)(=O)c4ccccc4)c4ccccc34)n2)cc(OC)c1OC` [17yab, (2-(1-(Phenylsulfonyl)-1H-indol-3-yl)-1H-imidazol-4-yl)(3,4,5-trimethoxyphenyl)methanone]: the IC50 with B16-F1 was 539 nM; in the data set with A375, 481 nM; with WM164 it was 468 nM; in the data set on PC-3 (read-out: IC50 PC-3, SRB), 148 nM; in the data set with LNCaP, 234 nM; in the data set on PPC-1 it was 209 nM. Further, the IC50 in the data set with DU 145 amounted to 592 nM.

As to `COc1cc(C(=O)c2csc(-c3ccc4c(ccn4C)c3)n2)cc(OC)c1OC` [31a], the “stability in human liver microsomes, in words” value in data set [8] is “acceptable stability”. The IC50 amounted to 21 nM in the data set with A549; 16 nM in the data set with C26; 22 nM in the data set with MCF7; 5 nM in the data set on PC-3 (read-out: IC50 in the SRB, PC3, 96 h treatment, N = 3, Table 15); 18 nM in the data set with MES-SA; 16 nM in the data set on OVCAR-8. Besides, the results for the IC50 with NCI/ADR-RES and in the data set on MES-SA/DX5 were 14 nM and 18 nM, respectively.

On to `COc1ccc(/C=C\c2cc(OC)c(OC)c(OC)c2)cc1O` [CA4, reference compound], for which the IC50 was 3.2 nM with PC3, 6 nM with T47D and 1.2 nM in the data set on HUVEC. For the same compound, the “permeability of endothelial cell monolayer” value in [9] is recorded as “increased permeability”.

For `COc1cc(C(=O)c2csc(-c3ccc4[nH]ccc4c3)n2)cc(OC)c1OC` [compound 31], the IC50 in the data set on B16-F1 was 8.3 nM; in the data set on A375, 25 nM; with A549, 9 nM; in the data set with C26 it was 5 nM; with MCF7, 11 nM; in the data set on PC-3 (read-out: IC50 PC-3, SRB), 7.6 nM. Besides, the IC50 with MES-SA was 6 nM; with OVCAR-8, 11 nM; with NCI/ADR-RES, 5 nM; with MES-SA/DX5, 8 nM. The AUC (in general, concentration integrated over time) in data set [6] (setting [11]) is 210 µg·min/mL and 249 µg·min/mL. In [6] (setting [11]), the CI is 23 mL/min/kg and 18 mL/min/kg. The “stability in human liver microsomes, in words” value in data set [8] is recorded as “acceptable stability”.

Turning to `CC[C@]1(O)C[C@@H]2CN(CCc3c([nH]c4ccccc34)[C@@](C(=O)OC)(c3cc4c(cc3OC)N(C)[C@H]3[C@@](O)(C(=O)OC)[C@H](OC(C)=O)[C@]5(CC)C=CCN6CC[C@]43[C@@H]65)C2)C1` [vinblastine, reference compound], in data set [10], the “competition with colchicine for tubulin binding” value is “did not inhibit the colchicine-tubulin binding”.
